Measurements: publication PMC7794376 (Nature Communications, 2021)
Several values for one entry are separate records, joined by “and”; a condition that tells them apart may be missing. Equal entries are not always repeated. Where two headings read alike, the source gives them in different places.

How the values were obtained:
[1] = test system: M. tuberculosis H37Rv; test: MIC determination in different media; assay type: cell-based; conditions: Mycobacterium tuberculosis, read-out: Minimum inhibitory concentration (MIC)
[2] = molecular target: MtbCoaBC (Mycobacterium tuberculosis, UniProt P9WNZ1); test: biochemical; assay type: biochemical; conditions: for activity at 0.03125 µM / activity at 0.0625 µM / activity at 0.25 µM / activity at 0.5 µM / activity at 1 µM / activity at 2 µM: relative to average DMSO CT; for Activity R1 / Activity R3: slope of absorbance at 360nm vs time (s)
Chain of MtbCoaBC (P9WNZ1 whole entry): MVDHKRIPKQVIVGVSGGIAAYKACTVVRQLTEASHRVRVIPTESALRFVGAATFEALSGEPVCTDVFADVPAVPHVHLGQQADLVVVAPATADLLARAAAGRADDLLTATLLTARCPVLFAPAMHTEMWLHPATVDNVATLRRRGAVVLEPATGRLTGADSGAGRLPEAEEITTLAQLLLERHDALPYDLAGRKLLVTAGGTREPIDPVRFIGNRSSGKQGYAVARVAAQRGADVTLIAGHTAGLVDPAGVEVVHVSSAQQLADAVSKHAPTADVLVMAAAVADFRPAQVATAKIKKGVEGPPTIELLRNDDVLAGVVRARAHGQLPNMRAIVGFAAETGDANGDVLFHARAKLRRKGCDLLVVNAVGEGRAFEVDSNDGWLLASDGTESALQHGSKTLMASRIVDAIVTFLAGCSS

Molecule `Cc1ccc(-c2oc3cc(O)cc(O)c3c(=O)c2O)cc1C` [compound 2d] has an MIC ([1]; 7H9/ADC/Glycerol) of over 250 µM, an MIC ([1]; 7H9/Cholesterol/Tyloxapol) of over 250 µM and an MIC ([1]; GAST/Fe) of over 250 µM. The inhibition at 0.03125 µM ([2]; 2d at 0.03125 uM, replicate R1, read-out: Inhibition % R1) was 0.7%, the activity at 0.03125 µM ([2]; 2d at 0.03125 uM, replicate R1, read-out: Activity % R1) was 99.3% and the “Activity R1” value ([2]; 2d at 0.03125 uM, replicate R1) was 0.0001845. For the same molecule, the inhibition at 0.03125 µM ([2]; 2d at 0.03125 uM, replicate R2, read-out: Inhibition % R2) was 0.97%, the activity at 0.03125 µM ([2]; 2d at 0.03125 uM, replicate R2, read-out: Activity % R2) was 99% and the inhibition at 0.03125 µM ([2]; 2d at 0.03125 uM, replicate R3, read-out: Inhibition % R3) was 0.58%. The activity at 0.03125 µM ([2]; 2d at 0.03125 uM, replicate R3, read-out: Activity % R3) was 99.4%, the “Activity R3” value ([2]; 2d at 0.03125 uM, replicate R3) was 0.0001847 and the inhibition at 0.0625 µM ([2]; 2d at 0.0625 uM, replicate R1, read-out: Inhibition % R1) was 8.46%. The activity at 0.0625 µM ([2]; 2d at 0.0625 uM, replicate R1, read-out: Activity % R1) was 91.5%, the “Activity R1” value ([2]; 2d at 0.0625 uM, replicate R1) was 0.0001701 and the inhibition at 0.0625 µM ([2]; 2d at 0.0625 uM, replicate R2, read-out: Inhibition % R2) was 5.42%. It also gave an activity at 0.0625 µM ([2]; 2d at 0.0625 uM, replicate R2, read-out: Activity % R2) of 94.6%, an inhibition at 0.0625 µM ([2]; 2d at 0.0625 uM, replicate R3, read-out: Inhibition % R3) of 3.86% and an activity at 0.0625 µM ([2]; 2d at 0.0625 uM, replicate R3, read-out: Activity % R3) of 96.1%. For the same molecule, the “Activity R3” value ([2]; 2d at 0.0625 uM, replicate R3) was 0.0001786, the inhibition at 0.25 µM ([2]; 2d at 0.25 uM, replicate R1, read-out: Inhibition % R1) was 14.5% and the activity at 0.25 µM ([2]; 2d at 0.25 uM, replicate R1, read-out: Activity % R1) was 85.5%. The “Activity R1” value ([2]; 2d at 0.25 uM, replicate R1) was 0.0001588, the inhibition at 0.25 µM ([2]; 2d at 0.25 uM, replicate R2, read-out: Inhibition % R2) was 31.1% and the activity at 0.25 µM ([2]; 2d at 0.25 uM, replicate R2, read-out: Activity % R2) was 68.9%. The inhibition at 0.25 µM ([2]; 2d at 0.25 uM, replicate R3, read-out: Inhibition % R3) was 29.5%, the activity at 0.25 µM ([2]; 2d at 0.25 uM, replicate R3, read-out: Activity % R3) was 70.5% and the “Activity R3” value ([2]; 2d at 0.25 uM, replicate R3) was 0.000131. The inhibition at 0.5 µM ([2]; 2d at 0.5 uM, replicate R1, read-out: Inhibition % R1) was 41%, the activity at 0.5 µM ([2]; 2d at 0.5 uM, replicate R1, read-out: Activity % R1) was 59% and the “Activity R1” value ([2]; 2d at 0.5 uM, replicate R1) was 0.0001096. For the same molecule, the inhibition at 0.5 µM ([2]; 2d at 0.5 uM, replicate R2, read-out: Inhibition % R2) was 49.6%, the activity at 0.5 µM ([2]; 2d at 0.5 uM, replicate R2, read-out: Activity % R2) was 50.4% and the inhibition at 0.5 µM ([2]; 2d at 0.5 uM, replicate R3, read-out: Inhibition % R3) was 54%. For the same molecule, the activity at 0.5 µM ([2]; 2d at 0.5 uM, replicate R3, read-out: Activity % R3) was 46%, the “Activity R3” value ([2]; 2d at 0.5 uM, replicate R3) was 8.549e-5 and 0.000085493 and the inhibition at 1 µM ([2]; 2d at 1 uM, replicate R1, read-out: Inhibition % R1) was 63%. The activity at 1 µM ([2]; 2d at 1 uM, replicate R1, read-out: Activity % R1) was 37%, the “Activity R1” value ([2]; 2d at 1 uM, replicate R1) was 6.875e-5 and 0.000068751 and the inhibition at 1 µM ([2]; 2d at 1 uM, replicate R2, read-out: Inhibition % R2) was 75%. For the same molecule, the activity at 1 µM ([2]; 2d at 1 uM, replicate R2, read-out: Activity % R2) was 25%, the inhibition at 1 µM ([2]; 2d at 1 uM, replicate R3, read-out: Inhibition % R3) was 72.4% and the activity at 1 µM ([2]; 2d at 1 uM, replicate R3, read-out: Activity % R3) was 27.6%. For the same molecule, the “Activity R3” value ([2]; 2d at 1 uM, replicate R3) was 5.136e-5 and 0.000051357, the inhibition at 2 µM ([2]; 2d at 2 uM, replicate R1, read-out: Inhibition % R1) was 79% and the activity at 2 µM ([2]; 2d at 2 uM, replicate R1, read-out: Activity % R1) was 21%. For the same molecule, the “Activity R1” value ([2]; 2d at 2 uM, replicate R1) was 3.9e-5 and 0.000039000, the inhibition at 2 µM ([2]; 2d at 2 uM, replicate R2, read-out: Inhibition % R2) was 91% and the activity at 2 µM ([2]; 2d at 2 uM, replicate R2, read-out: Activity % R2) was 8.99%. For the same molecule, the inhibition at 2 µM ([2]; 2d at 2 uM, replicate R3, read-out: Inhibition % R3) was 85%, the activity at 2 µM ([2]; 2d at 2 uM, replicate R3, read-out: Activity % R3) was 15% and the “Activity R3” value ([2]; 2d at 2 uM, replicate R3) was 2.786e-5 and 0.000027864. For the same molecule, the “Activity R1” value ([2]; 2d at […], replicate R1) was 0.0001624, the “Activity R3” value ([2]; 2d at […], replicate R3) was 0.0001724 and the IC50 ([2]; CoaB activity, […] CTP, […] PPA, 500 µM L-cysteine, average of three independent experiments ± SD, read-out: IC50 EnzChek MtbCoaBC) was 0.54 ± 0.06 µM.
